Data on eleven compounds can be found in patent publication US9072901B2, “Cardiac neuromodulation and methods of using same” (The Board of Regents of the University of Oklahoma, priority 2001, dated 2015).

Assay [1] has as its system canine nodose ganglion afferent neuron. As to the kind of experiment: Nodose ganglion afferent neuron activity after epicardial CPA. To be noted: CPA via 1 cm×1 cm pledget on ventral left ventricular epicardium. Type of assay: in vivo. As to the method:
Panel B was obtained 1 minute after terminating CPA application.

For assay [2], the system named is canine intrinsic cardiac neurons. As to the kind of experiment: Intracellular recording of canine intrinsic cardiac neurons in vitro, ACh pulse with or without hexamethonium. Format: cell-based. Particulars: hexamethonium 100 μM for 5 min in perfusate. As to the method:
The horizontal bar under the traces indicates application of a 10 ms pulse of ACh (1 mM) from the tip of a pipette placed near the ganglion. A, CONTROL. […] DCX. […] During the repolarization phase, the membrane potential began to oscillate with APs being discharged on oscillatory peaks. […] DCX. […] The bursting of activity is reflective of the enhanced muscarinic receptor-mediated responses of these neurons.
Intrinsic cardiac neurons remain responsive to cholinergic synaptic inputs. The cholinergic receptor systems are differentially affected by disruption of nerve inputs to the ICN, with muscarinic responsiveness being enhanced (FIG. 9). Non-cholinergic neurotransmitters can modulate the activity of these neurons. FIG. 10 illustrates the interaction between acetylcholine and the peptide, substance P.

The test system of assay [3] is intrinsic cardiac neurons. As to the kind of experiment: Activity generated by right atrial (intrinsic cardiac) neurons recorded in situ in anesthetized dogs. Format: in vivo, dog. Particulars: for enhancement of intrinsic cardiac neuronal activity: epicardial veratridine 7.5 μM.
Another assay deals with T3 neurons. As to the kind of experiment: T3 neuron activity with intrapericardial bradykinin and glutamate pledget on C1-C2 segments. Type of assay: in vivo, rats. The source says:
FIGS. 19A-19F show responses of T3 cell to chemical stimulation of glutamate before and after rostral C1 spinal transection. The responses were evoked by intrapericardial injections of bradykinin (BK). Saline was used as the control. Pledgets of glutamate placed on the C1-C2 dorsal spinal cord (B) decreased the discharge rate of the cell for the three minute period it was applied. The background activity recovered after glutamate was removed. […] The presence of glutamate attenuated this response (E). The increased rate of discharge to BK injections was again observed when glutamate was removed (F). In each panel, action potentials were recorded on a rate histogram.
Originally, it was assumed that supraspinal pathways are necessary for descending inhibitory effects of visceral afferents on sensory neurons. […] Thus, it appears that the upper cervical segments play an important role in the hierarchy that controls the efferent outflow to the intrathoracic and intrinsic cardiac nervous system. […]
Descending modulation of thoracic cardiac nociceptive transmission by upper cervical spinal neurons. […] Methods: Extracellular potentials of single T3 neurons were recorded in pentobarbital anesthetized male rats. […]

The subject of assay [4] is right atrial ganglionated plexus neurons. As to the kind of experiment: Activity of right atrial ganglionated plexus neuron populations during epicardial chemical stimuli. Type of assay: in vivo. Particulars: ventricular sensory inputs. The source says:
Arrow indicates application of veratridine to the epicardium of the left ventricle. At baseline, note the cycling of activity with a periodicity of 20 seconds. In the unstressed condition, this bursting is usually associated with increased coordination of activity between the two populations of neurons (see bottom trace).
Sub-populations of right atrial neurons that receive afferent inputs from sensory neurites in both ventricles are responsive to local mechanical stimuli and the nitric oxide donor nitroprusside. Neurons in at least one ganglionated plexus locus were activated by epicardial application of veratridine, bradykinin, the β1-adrenoceptor agonist prenaterol or the excitatory amino acid glutamate. […] These periods of coupled activity occurred every 30-50 second during basal states, as well as when neuronal activity was enhanced by chemical activation of their ventricular sensory inputs. It has been observed that neurons throughout one intrinsic cardiac ganglionated plexus receive inputs from mechano- and chemo-sensory neurites located in both ventricles. That such neurons respond to multiple chemical stimuli, including those liberated from adjacent adrenergic efferent nerve terminals, indicates the complexity of the integrative processing of information that occurs within the intrinsic cardiac nervous system.
Intraganglionic interactions within the intrinsic cardiac nervous system depend in large part on common shared afferent inputs and/or interconnections mediated via local circuit neurons. In order to evaluate these interactions, separate populations of neurons were recorded in the ventral right atrial ganglionated plexus (RAGP) in basal states and during discrete mechanical and chemical stimuli of ventricular neurites. In basal states, the coherence of activity generated by the two populations of RAGP neurons fluctuated with a periodicity of 30-50 s and with an average peak coherence of 0.88±0.03. Coherence was increased in conjunction with the enhanced neuronal activity evoked during exposure of ventricular sensory inputs to mechanical and chemical (nitroprusside, veratridine, bradykinin, adrenergic agonists or glutamate) stimuli.

Assay [5] relates to intrinsic cardiac neurons. To be noted: direct application; cited from earlier work.
The next assay has as its system right atrial neurons. As to the kind of experiment: Ventricular unipolar electrograms (ST segment) with ANG II administered to right atrial neurons, ameroid constrictor chronic ischemia. Format: in vivo. To be noted: ANG II 40 μg/min. On the procedure: Under basal conditions, electrograms display slight ST segment displacement (panel B). Transient rapid ventricular pacing (240/min for 1 min), used to increase myocardial O2 demand, precipitates ischemic episodes. In the first beats following rapid pacing, ST segment displacement is inhomogeneously augmented in the LCx territory. Marked ST segment depression (−2 to −6 mV) occurs in some areas, whereas ST elevation (+2 to +15 mV) develops in others (panel C). […] Note that the ST changes, induced by ANG II, occurred at the apical margin of the plaque electrode, i.e., at the periphery of the LCx territory (Panel D). In contrast, the changes induced by transient rapid pacing occurred at a more central location in the LCx territory (panel C).
Note that the ST changes occurred at the apical margin of the plaque electrode (panel B). Thus, the ST segment changes are caused by direct or indirect activation of ganglionated plexus neurons that project efferent axons to the specific ventricular areas in which the changes occurred. […]
Dorsal column activation stabilizes ischemic myocardial electrical dysfunction. […] Four weeks later, under general anesthesia multiple ventricular unipolar electrograms were recorded in the normal and ischemic left ventricle during basal states and when ANG II (40 μg/min; 1 minute) was administered to right atrial neurons before and after DCA. […]

The test system of assay [6] is right atrial ganglionated plexus. In words: ISF, aorta and coronary sinus catecholamines (microdialysis) during ANG II infusion into blood supply of the RAGP. Format: in vivo, dog. As to the method:
FIGS. 8A-8C show ISF, aorta and coronary sinus norepinephrine (NE) and epinephrine (EPI) levels in response to stellate stimulation (4 Hz), angiotensin II (ANG II) infusion (100 μM, 1 ml/min) into the blood supply for the Right Atrial Ganglionated Plexus (RAGP) and Dorsal Cord Activation (DCA, 50 Hz, 200 μsec, 90% motor threshold). ISF fluids were sampled using the microdialysis techniques summarized in Aim 3.
LV dP/dt correlated with ISF NE release. However, NE spillover into the coronary sinus occurred only during sympathetic efferent neuronal stimulation (FIG. 8C). […] This differential release of catecholamines from cardiac nerves occurred in spite of a 40-fold higher NE compared to EPI content in the dog LV myocardium (237±33 vs. 6.4±1.0 ng/g). […] Dorsal cord activation (FIG. 8B) evoked a release of EPI into the ISF equivalent to stellate stimulation, but with only a modest increase in ISF NE.

The test system of another assay is intracardiac neuron. As to the kind of experiment: Inhibition of ACh-evoked responses by substance P, intracellular recording. Format: cell-based. Particulars: bath application of 10 μM substance P; 28 ms puffs of ACh 10 mM. On the procedure: Local application of ACh evoked action potentials. These ACh evoked potentials were blocked during bath application of 10 μM substance P (see horizontal bar).

No end group written: not given here.

Take `OC[C@H]1O[C@@H](n2cnc3c(NC4CCCC4)ncnc32)[C@H](O)[C@@H]1O` [CPA]: the “activity generated by nodose ganglion afferent neuron” value in [1] is recorded as “enhancement of the activity”.
Consider `C[N+](C)(C)CCCCCC[N+](C)(C)C` [Hexamethonium], for which the ACh-induced depolarization result is “reduced the amplitude of ACh-induced depolarization relative to the control state; no APs were generated” in assay [2] (CONTROL neuron) and “reduced the amplitude of ACh-induced depolarization; AP discharge was facilitated” in [2] (DCX neuron).
For `OC[C@@H](O)[C@H]1O[C@@H]2O[C@H](C(Cl)(Cl)Cl)O[C@@H]2[C@H]1O` [alpha chloralose], the “effect of each bolus on neuronal activity” value in assay [3] (dog, in vivo, iv) is on record as “suppressed neuronal activity for a few minutes”.
For `N[C@@H](CCC(=O)O)C(=O)O` [glutamate], the “spontaneous activity of T3 neurons and excitatory inputs from cardiac sensory neurons” value with T3 neurons (after transection at the rostral C1 spinal cord) is given as “still reduced”. In the assay with T3 neurons (glutamate pledget 1 M, 1-3 min, on C1-C2), the “T3 neurons in which spontaneous activity and/or excitatory responses to intrapericardial bradykinin were inhibited” value worked out at 77%. Further, in [4], the “neuronal response to epicardial application” value (shortened to “neuronal response”) was “activated”.
On to `NC[C@H](O)c1ccc(O)c(O)c1` [norepinephrine], for which the “identified intrinsic cardiac neurons whose properties are modified” value in assay [5] is given as “about 25%”.
As to `CC(C)NC[C@H](O)COc1ccc(O)cc1` [prenaterol], the “neuronal response” value in assay [4] is “activated”.
As for `CC(C)(C)NCC(O)c1cc(O)cc(O)c1` (centres unmarked) [terbutaline], the “neuronal response” value in assay [4] is given as “inconsistent neuronal responses”.
With `COc1ccc(C(=O)O[C@H]2CC[C@@]3(C)[C@@H]4CC[C@H]5[C@]6(O)C[C@H](O)[C@@]7(O)[C@@H](CN8C[C@@H](C)CC[C@H]8[C@@]7(C)O)[C@]6(O)C[C@@]53O[C@]24O)cc1OC` [veratridine], the “intrinsic cardiac neuronal activity with veratridine” value in [3] (after application of SCS, four animals, from 11.8±2.5) was determined as 16.5±4.6 impulses/min; in assay [3] (after completing the protocols, all 10 dogs, from 25.6±5.7) it was 40.6±12.5 impulses/min; in assay [3] (before application of SCS, four animals), 40.5±26.7. Also, the “enhancement of intrinsic cardiac neuronal activity” value turned out to be 39% in assay [3] (after application of SCS, four animals, no significant difference) and 124% in assay [3] (before application of SCS, four animals, P<0.05). In assay [3] (epicardial veratridine, after completing the protocols (following SCS and regional ventricular ischaemia), all 10 dogs, P<0.05), the “increase of intrinsic cardiac neuronal activity” value came to 58%.
Regarding “angiotensin II (DRVYIHPF; Angiotensin-2; UniProt P01019 25-32, looked up) [ANG II]”, the “regional ST segment changes” value with right atrial neurons (ischemic ventricle, 1 minute) is “increased the area and magnitude”. Moreover, in the assay with right atrial neurons (normal myocardium), the electrical behavior result is “minimal changes”. Moreover, in assay [6] (ANG II 100 μM, 1 ml/min into RAGP blood supply, anesthetized dog), the “NE concentration in the cardiac interstitial fluid (ISF)” value is given as “to the same extent as achieved during electrical stimulation of the stellate ganglia”. For the same compound, the “EPI spillover into the coronary sinus” value in [6] (ANG II stimulation) is on record as “Neither stellate nor ANG II stimulation evoked EPI spillover”. In addition, the “neuronal response” value in assay [4] is “inconsistent neuronal responses”.
nitroprusside: the “neuronal response” value in assay [4] is given as “responsive”.
With “substance P (RPKPQQFFGLM-NH2; ends and bridges not checked; UniProt P20366 58-68, looked up)”, in the assay on intracardiac neuron, the ACh evoked potentials result is recorded as “blocked”.
